Assays:
[1] = biological target: T1, olfactory receptor OR9Q2 (Homo sapiens, UniProt Q8NGE9); experiment: OR9Q2 response inhibitory effect for p-cresol, luciferase reporter gene assay; format: cell-based; conditions: p-cresol 100 µM mixed with various concentrations of compound; cells expressing OR9Q2; ratio of Fold Increase value (FIGS. 1 to 11)
T1 construct: 20 N-terminal amino acid residues of bovine rhodopsin (Rho tag); expressed in transfected cells; host or cells: HEK293T
T1 sequence (Q8NGE9 1-314): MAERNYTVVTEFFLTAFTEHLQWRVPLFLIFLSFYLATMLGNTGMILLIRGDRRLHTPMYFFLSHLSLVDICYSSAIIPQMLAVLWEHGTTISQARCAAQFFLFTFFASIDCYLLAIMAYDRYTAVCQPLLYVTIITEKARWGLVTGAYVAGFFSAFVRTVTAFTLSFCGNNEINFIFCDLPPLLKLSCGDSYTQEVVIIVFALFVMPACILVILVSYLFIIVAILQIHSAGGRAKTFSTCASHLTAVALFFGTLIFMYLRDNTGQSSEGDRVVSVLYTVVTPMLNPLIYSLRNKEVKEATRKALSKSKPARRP
Description: The human olfactory receptor gene was obtained by cloning from Human Genomic DNA: Female (Promega) by PCR method based on the sequence information registered in GenBank. The 20 N-terminal amino acid residues of bovine rhodopsin were incorporated into the pME18S vector, and the obtained human olfactory receptor gene was incorporated downstream thereof to obtain a human olfactory receptor gene expression vector.
In 10 µL of Opti-MEM I (gibco), 0.05 µg of human olfactory receptor gene expression vector, 0.01 µg of RTP1S vector, 0.01 µg firefly luciferase vector pGL4.29 (Promega) containing cAMP response element promoter, and 0.005 µg of Renilla luciferase vector pGL4.74 (Promega) containing thymidine kinase promoter were dissolved to prepare a gene solution (for one well). HEK293T cells were seeded at 100 µL each in a 96-well plate (Biocoat, Coming) at the number of cells reaching confluence after 24 hours, and a gene solution was added to each well by the lipofection method according to the usage of Lipofectamine 3000 to introduce genes into the cells, and the cells were cultured at 37° C. in a 5% carbon dioxide atmosphere for 24 hours.
After removing the culture medium, the resultant was prepared with CD293 (gibco) medium ([…] added) so as to have a concentration for measuring the aroma substance to be tested, 50 µL of which was added each and stimulated for 3 hours, and then luciferase activity was measured according to the method of using the Dual-Luciferase Reporter Assay System (Promega). The response intensity of the olfactory receptor polypeptide was expressed as a Fold Increase value obtained by dividing the luciferase activity produced by stimulating the aroma substance by the luciferase activity produced in the test system containing no aroma substance.
p-Cresol at 100 µM was mixed with various concentrations of 1-oxacycloheptadecan-7-en-2-one, 1-oxacycloheptadecan-8-en-2-one, isoambrettolide, pentalide, muscone, civetone, 8-2-decenolactone, cinnamic aldehyde, […], sclareolide, and ethyl maltol, and receptor responses were measured in cells expressing OR9Q2. The ratio of the Fold Increase value in the test in which each compound was mixed was calculated, where the Fold Increase value in the test in none of these compounds was mixed was set to 100. FIGS. 1 to 11 present the results.

[2] = Sensory evaluation of p-cresol odor masking in p-cresol-containing citrus-flavored beverage; conditions: for p-Cresol Odor Intensity: beverage with 50 ppb p-cresol, average score of 7 panelists, scale 0-4; for concentration at which the compound masks the p-cresol odor and does not affect the citrus flavor, lower limit / concentration at which the compound masks the p-cresol odor and does not affect the citrus flavor, upper limit: citrus-flavored beverage with 50 ppb p-cresol
Description: To 2 g of lemon flavor obtained by making lemon oil into an essence, purified water was added to adjust the total amount to 1000 ml. To this citrus-flavored beverage, p-cresol adjusted to a concentration of 1% by mass with 95% ethanol was added to 50 ppb in the citrus-flavored beverage. To this p-cresol-containing citrus-flavored beverage, 1-oxacycloheptadecan-7-en-2-one was added at the concentrations presented in Table 1 to confirm the p-cresol odor intensity (masking effect) and the influence on the citrus flavor of each sample.
For the test, seven skilled panelists were selected to perform sensory evaluation. The p-cresol odor intensity of the p-cresol-containing citrus-flavored beverage without added l-oxacycloheptadecan-7-en-2-one was determined as “Rating: 4,” and the p-cresol odor intensity of the p-cresol-free citrus-flavored beverage was determined as “Rating: 0,” and the p-cresol odor intensity (masking effect) of each sample was relatively evaluated according to the following evaluation criteria.
In addition, the influence of the citrus-flavored beverage on the citrus flavor was evaluated absolutely according to the following evaluation criteria for the presence or absence of off- flavor other than p-cresol odor and citrus flavor (Off-Flavor Intensity).
The results are as in Table 1, presenting the average score of the evaluation results for each panelist.

[3] = Sensory evaluation of p-cresol odor masking in p-cresol-containing citrus-flavored confectionery (tablet); conditions: for p-Cresol Odor Intensity: tablet with 200 ppb p-cresol, average score of 6 panelists, scale 0-4
Description: Lemon cold-pressed oil was added to the tablet having the composition presented in Table A at a concentration of 1 % by mass, and medium chain fatty acid triglycerides (MCT) was used to adjust p-cresol to a concentration of 0.1%, which was further added so as to reach 200 ppb in the citrus flavored confectionery. To this p-cresol-containing citrus-flavored confectionery, 1-oxacycloheptadecan-7-en-2-one was added at the concentrations presented in Table 12, and then tableting was performed to confirm the p-cresol odor intensity (masking effect) and the influence on the citrus flavor of each sample.
Six skilled panelists were selected to perform the same sensory evaluation as in Example 1. The results are as in Table 12, presenting the average score of the evaluation results for each panelist.

[4] = citrus-flavored confectionery (tablet) with 200 ppb p-cresol

SMILES	effect of suppressing the response of OR9Q2 to p-cresol [1]	p-Cresol Odor Intensity ([2]; 1 ppb added)	p-Cresol Odor Intensity ([2]; 1 ppm added)	p-Cresol Odor Intensity ([2]; 10 ppb added)	p-Cresol Odor Intensity ([2]; 10 ppm added)	p-Cresol Odor Intensity ([2]; 10 ppt added)	p-Cresol Odor Intensity ([2]; 100 ppb added)	p-Cresol Odor Intensity ([2]; 100 ppm added)	p-Cresol Odor Intensity ([2]; 100 ppt added)	concentration at which the compound masks the p-cresol odor and does not affect the citrus flavor, lower limit [2]	concentration at which the compound masks the p-cresol odor and does not affect the citrus flavor, upper limit [2]	p-Cresol Odor Intensity ([2]; 0.01 ppt added)	p-Cresol Odor Intensity ([2]; 0.1 ppt added)	p-Cresol Odor Intensity ([2]; 1 ppt added)	further results
CCc1occc(=O)c1O [Ethyl Maltol, ethyl maltol]	suppressing the response of OR9Q2 to p-cresol in a concentration-dependent manner	2.3 points	1.4 points	2.0 points	1.3 points	3.7 points	1.6 points	0.4 points	2.7 points	≥ 100 ppt	≤ 10 ppm				
O=C1CCCCCCC/C=C\CCCCCCO1 [Isoambrettolide, isoambrettolide]	suppressing the response of OR9Q2 to p-cresol in a concentration-dependent manner	1.3 points		1.3 points		2.1 points	0.9 points		1.6 points	≥ 0.1 ppt	≤ 1 ppb	3.7 points	2.7 points	2.4 points	p-Cresol Odor Intensity ([3]; 4 ppb added): 2.5 points; p-Cresol Odor Intensity ([3]; 40 ppb added): 1.8 points; p-Cresol Odor Intensity ([3]; 40 ppt added): 3.0 points; p-Cresol Odor Intensity ([3]; 400 ppb added): 1.5 points; p-Cresol Odor Intensity ([3]; 400 ppt added): 2.7 points; concentration at which the compound masks the p-cresol odor and does not affect the citrus flavor, lower limit [3, 4]: ≥ 400 ppt; concentration at which the compound masks the p-cresol odor and does not affect the citrus flavor, upper limit [3, 4]: ≤ 400 ppb
C[C@@H]1CCCCCCCCCCCCC(=O)C1 [Muscone, muscone]	suppressing the response of OR9Q2 to p-cresol in a concentration-dependent manner	0.9 points		0.4 points		1.9 points	0.3 points		1.7 points	≥ 0.01 ppt	≤ 1 ppb	2.7 points	2.4 points	2.1 points	p-Cresol Odor Intensity ([2]; 0.001 ppt added): 3.7 points
CC1(C)CCC[C@]2(C)[C@H]3CC(=O)O[C@]3(C)CC[C@@H]12 [Sclareolide, sclareolide]	suppressing the response of OR9Q2 to p-cresol in a concentration-dependent manner	2.1 points	1.0 points	1.9 points	0.4 points	3.6 points	1.1 points		2.6 points	≥ 100 ppt	≤ 1 ppm				
C=C1CC[C@H]2O[C@]2(C)CC[C@@H]2[C@@H]1CC2(C)C [β-caryophyllene Oxide, β-caryophyllene oxide]	suppressing the response of OR9Q2 to p-cresol in a concentration-dependent manner	2.1 points	1.0 points	1.7 points	1.0 points	3.9 points	1.6 points	0.4 points	2.6 points	≥ 100 ppt	≤ 1 ppm				
CCCCCC1CC=CC(=O)O1 (stereo not shown) [δ-2-Decenolactone, δ-2-decenolactone]	suppressing the response of OR9Q2 to p-cresol in a concentration-dependent manner	2.3 points	1.3 points	2.0 points	0.7 points	2.7 points	1.6 points		2.4 points	≥ 10 ppt	≤ 100 ppb			3.9 points	

Source: US20230180804A1, “FLAVOR COMPOSITION, AND FOOD AND BEVERAGE” (TAKASAGO INTERNATIONAL CORPORATION, priority 2020, published 2023)
